From paper PMC5986078 (Clinical cancer research : an official journal of the …, 2017)

How the values were obtained:
U251HF-GFP xenograft = test: Orthotopic intracranial zebrafish glioma xenograft; details: TMZ 10 μM, onalespib 0.5 μM in fish water, 5-10 dpt
GSC811 xenograft = test: Patient-derived GSC811 intracranial xenograft in mice; format: in vivo, mouse; details: TMZ 4 mg/kg oral daily x5, onalespib 30 mg/kg iv day 16 and 19; vs vehicle
GSC2 (MES) = test: WST-1 viability assay in glioma stem cells; format: cell-based, human; details: GSC2, highest concentrations of onalespib
HSP90 [1] = test: HSP70 immunohistochemistry of brain tissue as marker of HSP90 inhibition in vivo; set-up: species or system mouse; details: 30 mg/kg iv, 0-24 h, vs vehicle treated mice
GSC lines = test: Transwell migration; format: cell-based, human
[2] = test system: LN229, U251HF and A172 cells; test: Colony forming assay; format: cell-based, human; details: 0.4 μM for 24 h, colonies after 10 days
U251HF cells = test: WST-1 proliferation assay; format: cell-based; details: Homo sapiens, 72 h, read-out: IC50, proliferation (WST assay)
CD133, Nestin, Olig2 = test: Stem cell marker expression in GSC11 and GSC23; format: cell-based, human
A172 cells = test: WST-1 proliferation assay; format: cell-based; details: Homo sapiens, A 172, 72 h, read-out: IC50, proliferation (WST assay)
p-STAT3 = p-STAT3 immunoblot in MES and PN GSC lines; format: cell-based, human; details: 48 h
GSC20 (MES) = test: WST-1 viability assay in glioma stem cells; format: cell-based, human; details: GSC20, highest concentrations of onalespib
GSC23 (PN) = test: WST-1 viability assay in glioma stem cells; format: cell-based, human; details: GSC23, highest concentrations of onalespib
[3] = test system: HSP90 / EGFR pathway in GSC11 and GSC23; test: Immunoblot of HSP70 and EGFR pathway in GSC11 and GSC23 neurospheres; format: cell-based, human; details: GSC11 and GSC23, 48 h
HSP90 [4] = test: HSP70 immunoblot as biomarker of HSP90 inhibition in glioma cell lines; format: cell-based, human; details: LN229, U251HF, A172; 0.1, 0.2, 0.4 μM, 48 h
[5] = test system: U251HF, LN229 and A172 cells; test: Wound healing; format: cell-based, human; details: 0.4 μM, 24 h, vs untreated controls
[6] = Brain and plasma pharmacokinetics by LC-MS/MS after iv bolus; format: in vivo, mouse; details: 30 mg/kg iv single dose
[7] = test system: LN229, U251HF and A172 cells; test: Apoptosis: annexin V/PI flow cytometry and caspase-3/7 activation; format: cell-based, human
LN229 cells = test: WST-1 proliferation assay; format: cell-based; details: Homo sapiens, LN-229, 72 h, read-out: IC50, proliferation (WST assay)
GSC11 (PN) = test: WST-1 viability assay in glioma stem cells; format: cell-based, human; details: GSC11, highest concentrations of onalespib
[8] = test system: endothelial cells exposed to conditioned medium of LN229, U251HF and A172 cells; format: cell-based; details: 0.4 μM for 24 h
EGFR signaling pathway = test: Immunoblot of EGFR-AKT-ERK-S6 signaling in glioma cell lines; format: cell-based, human
EGFRvIII = test: Immunoblot in U87 cells expressing mutant EGFRvIII; format: cell-based, human; details: 0.1, 0.2, 0.4 μM

## Cn1nnc2c(C(N)=O)ncn2c1=O [TMZ, temozolomide]
U251HF-GFP xenograft
  tumor burden: moderate reductions
GSC811 xenograft
  survival: did not extend survival

## CC(C)c1cc(C(=O)N2Cc3ccc(CN4CCN(C)CC4)cc3C2)c(O)cc1O [onalespib, (2,4-dihydroxy-5-isopropylphenyl)-[5-(4-methylpiperazin-1-ylmethyl)-1,3-dihydroisoindol-2-yl]methanone]
GSC2 (MES)
  viability (lost to): 50%
HSP90 [1]
  percentage and intensity of HSP70 pixels in brain tissue: increase
GSC lines
  invasive ability, transwell migration: markedly decreased
[2]
  colony formation (proliferative capacity): significantly inhibited
U251HF cells
  IC50: ≤ 250 nM
CD133, Nestin, Olig2
  expression of stem cell markers CD133 and Nestin: dose-dependent decrease
A172 cells
  IC50: ≤ 250 nM
p-STAT3
  p-STAT3: inhibited
GSC20 (MES)
  viability (lost to): 50%
U251HF-GFP xenograft
  survival: extended survival
  tumor burden: moderate reductions
GSC23 (PN)
  loss of viability: 50%
GSC811 xenograft
  survival: did not extend survival
[3]
  HSP70 levels in GSC: characteristic increase
  levels of total EGFR, pEGFR in GSC: steep declines
HSP90 [4]
  HSP70 levels (marker of HSP90 inhibition): increase in HSP70 levels in cells in a dose-dependent manner
[5]
  cell migration, wound healing: reduced ability to migrate
[6]
  brain Cmax relative to plasma Cmax (fold lower): 4.7 fold
  overall brain exposure versus plasma: greater than of plasma
[6]; each time point from 2 h up to 24 h
  onalespib level in brain tissue versus plasma: higher in brain tissue compared to the plasma
[7]; increasing concentrations of onalespib
  activation of caspase-3 and caspase-7: dose-dependent activation
[7]; increasing concentrations, 48 h
  percentage of annexin positive cells: increase
LN229 cells
  IC50: ≤ 250 nM
GSC11 (PN)
  loss of viability: over 90%
[8]
  number of microtubules formed by endothelial cells in response to CM: strongly inhibited
EGFR signaling pathway; 0.4 μM, up to 24 h
  EGFR level, time course: time-dependent decline
EGFR signaling pathway; U251HF, LN229, A172, 0.1-0.4 μM, 48 h
  levels of EGFR, p-EGFR, phospho- and total AKT, ERK1/2 and S6: robust dose-dependent decrease
EGFRvIII
  depletion of mutant EGFRvIII and downstream intermediates: equally effective
